Results from the supplement of paper PMC10307832.

Key:
Assay in all cases: relative viability (nuclei count vs DMSO), 5 days (fraction); higher = more cells survive
SGI-1776 + Palbociclib = compound: CN1CCC(CNc2ccc3ncc(-c4cccc(OC(F)(F)F)c4)n3n2)CC1 [SGI-1776] + CC(=O)c1c(C)c2cnc(Nc3ccc(N4CCNCC4)cn3)nc2n(C2CCCC2)c1=O [Palbociclib] (partner 0.5 µM)
How it was run: (§1)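 Relative viability equals treated-well nuclei counts divided by vehicle-well nuclei counts. Counts came from 4× images of lung cancer cell lines grown in 1536-well plates for 5 days after pin-tool dosing on the day after seeding. Dosing used one drug alone or a fixed anchor-drug dose plus five library-drug doses (not always all listed) in √10 steps, and values are medians of duplicate plates.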

SGI-1776 + Vorinostat = compound: CN1CCC(CNc2ccc3ncc(-c4cccc(OC(F)(F)F)c4)n3n2)CC1 [SGI-1776] + O=C(CCCCCCC(=O)Nc1ccccc1)NO [Vorinostat] (partner 1 µM)
How it was run: as §1

Entinostat + Linsitinib = compound: Nc1ccccc1NC(=O)c1ccc(CNC(=O)OCc2cccnc2)cc1 [Entinostat] + C[C@]1(O)C[C@@H](c2nc(-c3ccc4ccc(-c5ccccc5)nc4c3)c3c(N)nccn32)C1 [Linsitinib] (partner 1 µM)
How it was run: as §1

SGI-1776 + Linsitinib = compound: CN1CCC(CNc2ccc3ncc(-c4cccc(OC(F)(F)F)c4)n3n2)CC1 [SGI-1776] + C[C@]1(O)C[C@@H](c2nc(-c3ccc4ccc(-c5ccccc5)nc4c3)c3c(N)nccn32)C1 [Linsitinib] (partner 1 µM)
How it was run: as §1

Cell Line | relative viability (SGI-1776 + Palbociclib; first compound 0.08 µM) | relative viability (SGI-1776 + Palbociclib; first compound 0.8 µM) | relative viability (SGI-1776 + Palbociclib; first compound 2.53 µM) | relative viability (SGI-1776 + Palbociclib; first compound 8 µM) | relative viability (SGI-1776 + Vorinostat; first compound 0.08 µM) | relative viability (SGI-1776 + Vorinostat; first compound 0.8 µM) | relative viability (SGI-1776 + Vorinostat; first compound 2.53 µM) | relative viability (SGI-1776 + Vorinostat; first compound 8 µM) | relative viability (Entinostat + Linsitinib; first compound 0.02 µM) | relative viability (Entinostat + Linsitinib; first compound 0.06325 µM) | relative viability (Entinostat + Linsitinib; first compound 0.2 µM) | relative viability (Entinostat + Linsitinib; first compound 0.6325 µM) | relative viability (Entinostat + Linsitinib; first compound 2 µM) | relative viability (SGI-1776 + Linsitinib; first compound 0.08 µM) | relative viability (SGI-1776 + Linsitinib; first compound 0.8 µM) | relative viability (SGI-1776 + Linsitinib; first compound 2.53 µM) | relative viability (SGI-1776 + Linsitinib; first compound 8 µM)
LCLC-97TM1 | 0.252 | 0.231 | 0.198 | 0.228 | 0.777 | 0.842 | 0.79 | 0.727 | 0.158 | 0.147 | 0.139 | 0.165 | 0.14 | 0.193 | 0.154 | 0.187 | 0.16
HCC-78 | 0.481 | 0.428 | 0.446 | 0.458 | 0.456 | 0.44 | 0.501 | 0.339 | 0.496 | 0.395 | 0.306 | 0.156 | 0.151 | 0.582 | 0.432 | 0.449 | 0.403
NCI-H1975 | 0.684 | 0.563 | 0.568 | 0.526 | 0.745 | 0.725 | 0.683 | 0.589 | 0.791 | 0.755 | 0.692 | 0.302 | 0.27 | 0.946 | 0.906 | 0.909 | 0.803
